Values quoted from earlier work as cited in patent publication US5998407A, “Inhibitors of farnesyl-protein transferase” (Merck & Co., Inc., priority 1998, dated 1999).

Test system: farnesyl-protein transferase
Details: via inhibition of HMG-CoA reductase

| Compound | Indirect inhibition of farnesyl-protein transferase in vivo |
| --- | --- |
| CC[C@H](C)C(=O)O[C@H]1CCC=C2C=C[C@H](C)[C@H](CC[C@@H]3C[C@@H](O)CC(=O)O3)[C@H]21 [compactin] | Indirect inhibition of farnesyl-protein transferase in vivo has been demonstrated |
| CC[C@H](C)C(=O)O[C@H]1C[C@@H](C)C=C2C=C[C@H](C)[C@H](CC[C@@H]3C[C@@H](O)CC(=O)O3)[C@H]21 [lovastatin] | Indirect inhibition of farnesyl-protein transferase in vivo has been demonstrated |
